According to the supplement of paper PMC10307832:

How the values were obtained:
Assay in all cases: relative viability (nuclei count vs DMSO), 5 days (fraction); higher = more cells survive
[1] = compound: CN(C)C[C@@H]1CCn2cc(c3ccccc32)C2=C(C(=O)NC2=O)c2cn(c3ccccc23)CCO1 [Ruboxistaurin]
Outline: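 On vehicle-anchored 1536-well plates, lung cancer cell lines held overnight at 37 °C were pinned with five library-drug doses (not always all listed) spaced by √10. With no medium change over 5 days, they were then fixed, permeabilised and Hoechst-stained in one step and imaged at 4×. MetaXpress counted nuclei, and viability is the median across plates of treated-well over vehicle-well nuclei. Acceptance needed control CV below 25% and at least one doubling.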

[2] = compound: CN(C)C[C@@H]1CCn2cc(c3ccccc32)C2=C(C(=O)NC2=O)c2cn(c3ccccc23)CCO1 [Ruboxistaurin] + CC1(C)CCC(c2ccc(Cl)cc2)=C(CN2CCN(c3ccc(C(=O)NS(=O)(=O)c4ccc(N[C@H](CCN5CCOCC5)CSc5ccccc5)c(S(=O)(=O)C(F)(F)F)c4)cc3)CC2)C1 [Navitoclax] (partner 0.5 µM)
Outline: (§1)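 Five library-drug doses in √10 steps were combined with a fixed anchor-drug dose, or a single drug was given alone, by pin tool to lung cancer cell lines in 1536-well plates the day after seeding. Nuclei were stained and counted after 5 days. Relative viability is the nuclei count in treated wells over that in vehicle wells, taken as the median of duplicate plates.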

[3] = compound: CN(C)C[C@@H]1CCn2cc(c3ccccc32)C2=C(C(=O)NC2=O)c2cn(c3ccccc23)CCO1 [Ruboxistaurin] + COc1cccc2cc(-c3nc([C@H]4CC[C@H](C(=O)O)CC4)n4ncnc(N)c34)[nH]c12 [OSI-027] (partner 0.5 µM)
Outline: as §1

[4] = compound: CN(C)C[C@@H]1CCn2cc(c3ccccc32)C2=C(C(=O)NC2=O)c2cn(c3ccccc23)CCO1 [Ruboxistaurin] + CS(=O)(=O)N1CCN(Cc2cc3nc(-c4cccc5[nH]ncc45)nc(N4CCOCC4)c3s2)CC1 [Pictilisib] (partner 1 µM)
Outline: as §1

[5] = compound: CN(C)C[C@@H]1CCn2cc(c3ccccc32)C2=C(C(=O)NC2=O)c2cn(c3ccccc23)CCO1 [Ruboxistaurin] + Nc1ncn([C@H]2C[C@H](O)[C@@H](CO)O2)c(=O)n1 [Decitabine] (partner 2 µM)
Outline: as §1

Cell Line | relative viability ([1]; 0.08 µM) | relative viability ([1]; 0.8 µM) | relative viability ([1]; 2.53 µM) | relative viability ([1]; 8 µM) | relative viability ([2]; first compound 0.08 µM) | relative viability ([2]; first compound 0.8 µM) | relative viability ([2]; first compound 2.53 µM) | relative viability ([2]; first compound 8 µM) | relative viability ([3]; first compound 0.08 µM) | relative viability ([3]; first compound 0.8 µM) | relative viability ([3]; first compound 2.53 µM) | relative viability ([3]; first compound 8 µM) | relative viability ([4]; first compound 0.08 µM) | relative viability ([4]; first compound 0.8 µM) | relative viability ([4]; first compound 2.53 µM) | relative viability ([4]; first compound 8 µM) | relative viability ([5]; first compound 0.08 µM) | relative viability ([5]; first compound 0.8 µM) | relative viability ([5]; first compound 2.53 µM) | relative viability ([5]; first compound 8 µM)
PC-3 [JPC-3] | 1.12 | 0.97 | 1.11 | 1.09 | 0.89 | 0.757 | 0.813 | 0.829 | 0.922 | 0.701 | 0.72 | 0.622 | 0.883 | 0.678 | 0.742 | 0.814 | 0.897 | 0.814 | 0.922 | 0.838
PC-14 | 1.17 | 0.924 | 1.01 | 0.989 | 1.03 | 0.988 | 1.02 | 1.08 | 1.12 | 0.721 | 0.811 | 0.452 | 0.788 | 0.63 | 0.689 | 0.402 | 0.283 | 0.203 | 0.293 | 0.295
RERF-LC-KJ | 1.04 | 0.903 | 0.995 | 0.959 | 1.36 | 0.977 | 0.881 | 0.833 | 0.627 | 0.497 | 0.461 | 0.415 | 0.508 | 0.499 | 0.472 | 0.359 | 0.784 | 0.587 | 0.743 | 0.682
SK-LU-1 | 1.22 | 0.969 | 1.03 | 1.08 | 0.843 | 0.857 | 0.949 | 0.829 | 0.386 | 0.322 | 0.307 | 0.264 | 0.55 | 0.55 | 0.561 | 0.426 | 0.744 | 0.573 | 0.668 | 0.751
SK-MES-1 | 1.07 | 0.91 | 1.02 | 0.898 | 1.35 | 1.15 | 1.4 | 1.09 | 0.676 | 0.554 | 0.525 | 0.327 | 0.417 | 0.3 | 0.323 | 0.316 | 0.382 | 0.363 | 0.389 | 0.427
SW 1573 | 1.16 | 0.871 | 1.02 | 0.907 | 0.978 | 0.791 | 1.01 | 0.854 | 0.729 | 0.459 | 0.541 | 0.494 | 0.468 | 0.39 | 0.542 | 0.37 | 0.454 | 0.445 | 0.58 | 0.487
UMC-11 | 0.964 | 0.914 | 0.974 | 0.762 | 0.312 | 0.28 | 0.294 | 0.248 | 0.437 | 0.403 | 0.37 | 0.301 | 0.892 | 0.596 | 0.728 | 0.509 | 0.672 | 0.51 | 0.676 | 0.61
